Where two headings read alike, the source gives them in different places.
How the values were obtained:
IMR-90 = conditions: read-out: IC50 IMR-90; 72 h incubation; values previously reported, ref [10]; cited from earlier work
Caki-1 [1] = conditions: read-out: IC50 Caki-1; 72 h incubation; values previously reported, ref [10]; cited from earlier work
PC3 = assay: PrestoBlue Cell Viability assay, 72 h; format: cell-based, human; conditions: read-out: IC50 PC3, 72 h incubation
PC3 cells [2] = conditions: previously described, ref [16]; cited from earlier work
Caki-1 [3] = assay: PrestoBlue Cell Viability assay, 72 h; conditions: read-out: IC50 Caki-1, 72 h incubation
PC3 cells [4] = assay: Cell death assay; format: cell-based, human; conditions: PC3, IC50 concentration, 72 h, flow cytometry
[5] = system: Vascular Endothelial Growth Factor (VEGF); assay: Immunofluorescent analysis of VEGF level in PC3 cells; format: cell-based, human; conditions: PC3, IC20 concentration, 24 h incubation

| SMILES | IC50 (IMR-90) | IC50 (Caki-1 [1]) | IC50 (PC3) | reduction of migration (PC3 cells [2]) | IC50 (Caki-1 [3]) | apoptosis, % of the cell population (PC3 cells [4]) | reduction of VEGF [5] |
| --- | --- | --- | --- | --- | --- | --- | --- |
| N.N.[Cl][Pt][Cl] [Cisplatin] | 3.9 ± 0.5 µM | 23.9 ± 2.4 µM | 6.7 ± 2.8 µM | – | – | – | – |
| COc1ccc(C[C]2([Ti+2][C]3(Cc4ccc(OC)cc4)C=CC=C3)C=CC=C2)cc1.[Cl-].[Cl-] [Titanocene-Y] | – | – | 58.1 ± 11.2 µM | 19% | 29.4 ± 4.2 µM | – | – |
| CC(=O)OC[C@H]1O[C@@H]([S-])[C@H](OC(C)=O)[C@@H](OC(C)=O)[C@@H]1OC(C)=O.CCP(CC)CC.[Au+] [Auranofin] | 3.7 ± 0.4 µM | 2.8 ± 0.6 µM | 3.6 ± 0.005 µM | – | – | 73% | 50% |
